Reference: US12171732B2, “Compositions and use of N-chlorotaurine for treatment and prevention of respiratory infections” (priority 2021, dated 2024)
Read-outs that look alike come from different tables or passages of the source.

Columns and labels:
[1] = cited from earlier work
SARS-CoV-2 BavPat1 = assay: Inactivation of SARS-CoV-2 by NCT, plaque titration; format: cell-based
Method: FIG. 1A presents inactivation of SARS-Cov-2 (BAvPat1) by NCT. Virus suspension (SARS-CoV-2 BavPat1) was incubated with 1.0% (55 mM) NCT, 0.1% (5.5 mM) NCT, 1.0% NCT with 5.0% peptone or PBS or 5.0% peptone for 5 min, 15 min, 30 min, or 60 min at 37° C., after which samples were diluted 1:1 in met/his solution for inactivation of NCT. Remaining infectious virus particles were determined using plaque titration. To control for inactivation of NCT by met/his, virus was added after dilution of 1.0% NCT with or without peptone in met/his. Mean values±SD of three to eight independent experiments in duplicates. The dotted line indicates the detection limit (0.84 log10). Data were statistically analyzed using a two-way ANOVA including a Dunnett's multiple comparison test to PBS controls. *p<0.05, **p<0.01, ***p<0.001, ****p<0.0001.
Inactivation of SARS-CoV-2 wild type isolates from early 2020 was assessed by incubating stock virus with NCT for indicated time periods at 37° C. and then determining the remaining infectious particles using plaque assay or immunostaining as well as determining virus inactivation via RT-qPCR or TCID50. […]
With plaque assay readout, a significant reduction in infectious particles was detected after 15 min of incubation, when incubating SARS-CoV-2 with NCT in a buffered aqueous solution (FIG. 1A). […]

[2] = tested on: Influenza A/California/Swine Origin Virus/2009 (H1N1pdm); format: cell-based; conditions: 1.0% NCT
[3] = tested on: SARS-CoV-2, clinical isolate; assay: Virus inactivation assay with immunostaining readout (Vero/TMPRSS2/ACE2 cells); format: cell-based; conditions: 1% NCT, 37° C.
Method: (§1) FIG. 1C presents inactivation of SARS-Cov-2 (SARS-CoV-2, clinical isolate) by NCT. Virus suspension (SARS-CoV-2, clinical isolate) was incubated with 1% NCT or PBS for 1 min, 5 min, 7 min, 10 min, 20 min, and 30 min at 37° C. After inactivation of NCT and serial dilution, aliquots were added to Vero/TMPRSS2/ACE2 cells for 1 h in 96-well plates. Cells were washed, incubated for further 9 h, and fixed for Immunostaining (c) or RT-qPCR (d). In immunostaining, infected cells were visible as red spots and counted using an ImmunoSpot S6 Ultra-V reader and CTL analyser BioSpot® 5.0 software. Mean values±SD of three independent experiments.
(§2) Inactivation of SARS-CoV-2 wild type isolates from early 2020 was assessed by incubating stock virus with NCT for indicated time periods at 37° C. and then determining the remaining infectious particles using plaque assay or immunostaining as well as determining virus inactivation via RT-qPCR or TCID50. Exact incubation times of virus with NCT were ensured by adding met/his at the end of the incubation period, which inactivates NCT.

[4] = tested on: Influenza A/Singapore/Hongkong/2339/2000 (H1N1); format: cell-based, Influenza A virus
[5] = tested on: Influenza A/Panama/2007/1999 (H3N2); format: cell-based, Influenza A virus; conditions: 1.0% NCT, within 5 min, plaque assay (FIG. 2A)
[6] = after the end of an inhalation of 1.0% NCT, cited from earlier work
[7] = tested on: SARS-CoV-2, clinical isolate; assay: Virus inactivation assay with RT-qPCR readout (SARS-CoV-2 E Gene); format: cell-based; conditions: 1% NCT, 37° C., RT-qPCR (FIG. 1D)
Method: as §1
FIG. 1D presents inactivation of SARS-Cov-2 by NCT. After cell lysis and RNA extraction, one-step RT-qPCR assay was performed using the iTaq™ RT-PCR (BIO-RAD) kit and previously published primers and probes specific for detection of the SARS-CoV-2 E Gene on a CFX96™ real-time system (BIO-RAD). Mean values±SD of genome copies of three independent experiments. Detection limit 2.10 log10 RNA copies/ml (dotted line).

SARS-CoV-2 [8] = assay: Treatment of hospitalized COVID-19 patients with NCT solution for inhalation; format: in vivo, human
Method: The effect of an inhalation solution of NCT-Na is tested in patients who suffer from COVID-19 (infection with SARS-CoV-2). The solution consists of 1% NCT sodium in distilled water.

SARS-CoV-2 [9] = format: in vivo, human
RSV long strain = format: cell-based, respiratory syncytial virus
SARS-CoV-2 [10] = assay: Prophylaxis of contact persons with 1% NCT nose/throat spray; format: in vivo, human
Method: NCT may also be applied as nose/throat spray/rinse solution for prevention/prophylaxis of worsening or contagiousity to other persons. Even in case of low or no symptoms, 1% NCT aqueous solution may be used as a nose spray (two-three puffs (about 0.1 ml/puff) per nostril during forced nasal inspiration) and/or throat spray (three-four puffs (about 0.1 ml/puff) in the back of the mouth to the throat). Alternatively, 1% NCT aqueous solution may be used as a nasal rinse (10 ml to 20 ml instilled for 30 seconds up to 1 minute) and/or throat gargling solution (10 ml to 20 ml for 30 seconds up to 1 minute). This may be repeated at least two times per day or after close contact with other persons.
Spouse, person. (Day 7 of spouse's infection) dose time and symptoms: 2:10 PM—No symptoms 8:25 PM—No symptoms. (Day 8 of spouse's infection) dose time and symptoms: 2:40 PM—No symptoms 11:30 PM—No symptoms. (Day 9 of spouse's infection) dose time and symptoms: 11:10 AM—No symptoms 7:15 P. No symptoms.

inoculated cell culture = assay: MTT testing of cytotoxicity of inactivated NCT; format: cell-based; conditions: 0.1% NCT plus 0.1% met/his (inactivated NCT); PBS control 100.3±5.6
Description: The antiviral activity was concentration-dependent. […] This was valid for all tests and viruses in this study.

[11] = tested on: SARS-CoV-2 hCoV-19/Australia/VIC01/2020; assay: Inactivation of SARS-CoV-2 by NCT, plaque titration; format: cell-based; conditions: 1.0% NCT in the presence of Vero cells, 37° C. (FIG. 1B)
Method: FIG. 1B presents inactivation of SARS-Cov-2 (hCoV-19/Australia/VIC01/2020) by NCT. Virus suspension (SARS-CoV-2 h CoV-19/Australia/VIC01/2020) was incubated with NCT or PBS or isopropanol (positive control) for 5 min, 10 min, 20 min, and 60 min at 37° C. and then diluted 1:1 in met/his for inactivation of NCT, followed by plaque titration. Mean values±SD of three independent experiments. Detection limit 3.11 log10 (dotted line).
as §2
With plaque assay readout, a significant reduction in infectious particles was detected after 15 min of incubation, when incubating SARS-CoV-2 with NCT in a buffered aqueous solution (FIG. 1A). The mild oxidizing activity of the test antiseptic may explain why it took as long as 15 min to reduce infectious particles. In the presence of Vero cells (FIG. 1B) or particularly 5.0% peptone (FIG. 1A), however, a significant reduction of infectious virus particles occurred already after 5 min of incubation with 1.0% NCT. […]

[12] = molecular target: SARS-CoV-2 3C-like proteinase (Severe acute respiratory syndrome coronavirus 2, UniProt P0DTD1); assay: Structural changes of 3C-like proteinase by NCT, mass spectrometry; format: biochemical; conditions: 1% NCT, 30 min, 37° C.
Description: FIG. 5 presents Chlorination of tyrosines and histidines and oxidation of methionines and cysteines of SARS-CoV-2 3C-like proteinase by NCT.
Seven methionines and four cysteines were oxidized.

[13] = in vivo; cited from earlier work

Compound: O=S(=O)(O)CCNCl [NCT, N-chlorotaurine]
- systemic distribution ([1]; human, in vivo): not distributed systemically
- adverse effects ([1]; inhaled NCT, humans, phase I, chlorine taste and occasional tickle in the throat): Only minor and transient adverse effects
- incubation time after which a significant reduction of infectious virus particles occurred (SARS-CoV-2 BavPat1; 1.0% NCT in the presence of 5.0% peptone, 37° C. (FIG. 1A)): 5 min
- incubation time after which a significant reduction in infectious particles was detected (SARS-CoV-2 BavPat1; NCT in buffered aqueous solution, 37° C., plaque assay (FIG. 1A)): 15 min
- time to reduction to the detection limit [2]: ≤ 1 min
- log10 reduction of virus ([2]; within 1 min, plaque assay (FIG. 2B)): 6 log10
- reduction of infected cells ([3]; after 1 min (not significant, p=0.085)): 50%
- reduction of infected cells ([3]; after 5 min): 20-80%
- reduction of infected cells ([3]; after 7 min): 81-91%
- reduction of infected cells ([3]; after 10 min): 81-97%
- reduction of infected cells ([3]; after 20 min): 96-99%
- reduction of infected cells ([3]; after 30 min): > 99%
- effect of addition of ammonium chloride (NH4Cl) on activity against influenza viruses ([4]; 0.1% NCT plus 0.1% ammonium chloride versus 0.1% NCT (FIG. 2D)): significantly enhanced
- time to reduction to the detection limit ([4]; 1.0% NCT): ≤ 1 min
- log10 reduction of virus ([4]; 1.0% NCT, within 1 min, plaque assay (FIG. 2C)): 6 log10
- log10 reduction of virus [5]: 2 log10
- further time until active chlorine vanishes completely ([6]; after decrease to traces): 10 min
- time for concentration of active chlorine to decrease to traces [6]: ≤ 1 min
- reduction of genome copies [7]: highly significant reduction of genome copies
- course of disease during treatment (SARS-CoV-2 [8]; another 20 hospitalized patients, same treatment): no progression of the disease and lung failure was avoided
- outcome on leaving the hospital (SARS-CoV-2 [8]; eight hospitalized patients, 3 ml 1% NCT sodium inhaled 3 times a day for 1 week to 9 days via nebulizer): symptom-free or largely symptom-free
- PCR of nose and throat smear, positive after cycles (SARS-CoV-2 [9]; Example 1 patient, Day 0, two hours after start of 1% NCT nasal spray and gargling): 30-32 cycles
- PCR of throat/nostril swab, positive after cycles (SARS-CoV-2 [9]; Example 1 patient, Day 3, after 1% NCT therapy was stopped): 25 cycles
- complaints (SARS-CoV-2 [9]; Example 1 patient, Day 4 to Day 11, after 1% NCT therapy Day 0 to Day 2): no complaints
- PCR of nose-throat smear, positive after cycles (SARS-CoV-2 [9]; Example 1 patient, Day 6): 27 cycles
- throat and nasal smear control PCR, weakly positive after cycles (SARS-CoV-2 [9]; Example 1 patient, Day 13 (max cycle number 45)): 36.5 cycles
- throat and nasal smear control PCR (SARS-CoV-2 [9]; Example 1 patient, Day 19): negative
- swab PCR ct value (SARS-CoV-2 [9]; Example 2 patient, Day 1 evening, two hours after dosing, 14 cycles before NCT treatment): 20-22 cycles
- swab result (SARS-CoV-2 [9]; Example 2 patient, after 10 days quarantine): swab negative
- swab PCR ct value (SARS-CoV-2 [9]; Example 2 patient, evening of day 4, 1% NCT nose spray and gargling 3× daily): 31-34 cycles
- swab PCR ct value (SARS-CoV-2 [9]; Example 2 patient, morning of Day 6, 14 hours after the last dosing of NCT): 31-34 cycles
- symptoms (SARS-CoV-2 [9]; Example 4 patient, Day 10, 1% NCT nasal and throat spray since Day 4): No symptoms
- incubation time to significant titre reduction (RSV long strain; 0.1% NCT, 37° C.): 15 min
- infectious RSV measurable (RSV long strain; 1.0% NCT, after 15 minutes): Almost no detectable amount of infectious RSV
- log10 decrease of infectious virus titre (RSV long strain; 1.0% NCT, within 5 minutes, 37° C. (FIG. 3)): 4 log10
- infection status of family members (SARS-CoV-2 [10]; Example 2: wife and three teenagers in the same home, 1% NCT nose and throat spray 3 times daily): remained negative
- symptoms of spouse (SARS-CoV-2 [10]; Example 4: spouse, Day 7 to Day 9 of husband's infection): No symptoms
- infection status of persons with close contact to COVID-19 positive persons (SARS-CoV-2 [10]; several cases, use of the 1% NCT nasal spray): remained negative
- MTT reduction (inoculated cell culture): 94.1±8.5
- incubation time after which a significant reduction of infectious virus particles occurred [11]: 5 min
- cysteines oxidized [12]: four
- histidines chlorinated [12]: two
- methionines oxidized [12]: Seven
- tyrosines chlorinated [12]: 3

Compound: Cc1ccc(S(=O)(=O)[N-]Cl)cc1.[Na+] [chloramine T]
- effects after inhalative application [13]: asthmatic and inflammatory symptoms

Compound: Cl.N [Ammonium chloride, ammonium chloride, reference compound]
- antiviral effect ([4]; ammonium chloride alone, up to 10 min incubation time): no antiviral effect
